Reference: ChEMBL document CHEMBL3769347, “Discovery of high affinity inhibitors of Leishmania donovani N-myristoyltransferase” (Medchemcomm, 2015)

Legend:
[1] = Cytotoxicity in BALB/c mouse BMDM cells after 72 hrs by Alamar Blue assay; type: cell-based; details: bone marrow-derived macrophages (BMDM cells), read-out: LD50
[2] = molecular target: T1, Glycylpeptide N-tetradecanoyltransferase (Plasmodium falciparum (isolate 3D7), UniProt Q8ILW6); test: Binding affinity to Plasmodium falciparum N-myristoyltransferase by fluorescence analysis
T1 sequence (Q8ILW6 whole entry): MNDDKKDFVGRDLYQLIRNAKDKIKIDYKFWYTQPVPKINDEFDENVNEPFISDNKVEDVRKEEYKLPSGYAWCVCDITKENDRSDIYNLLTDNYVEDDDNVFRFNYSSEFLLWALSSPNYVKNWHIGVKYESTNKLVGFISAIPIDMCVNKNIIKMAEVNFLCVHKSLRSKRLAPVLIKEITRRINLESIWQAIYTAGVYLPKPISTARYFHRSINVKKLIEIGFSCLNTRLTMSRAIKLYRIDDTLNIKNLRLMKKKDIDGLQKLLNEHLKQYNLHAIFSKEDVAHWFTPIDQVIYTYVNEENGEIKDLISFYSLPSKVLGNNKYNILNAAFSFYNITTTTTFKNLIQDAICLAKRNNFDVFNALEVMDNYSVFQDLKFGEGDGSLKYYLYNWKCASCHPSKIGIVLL

Row | Ki [2] [µM] | Structure (SMILES) | CC50 at 72 h [1] [µM]
1 |  | COc1cccc(Cc2noc(-c3cc(Cl)ccc3OC3CCNCC3)n2)c1 | 18
2 |  | COc1cccc(Cc2noc(-c3cc(OC)ccc3OC3CCNCC3)n2)c1 | 27.9
3 |  | COc1cccc(Cc2noc(-c3ccc(F)cc3OC3CCNCC3)n2)c1 | 29.5
4 | > 100 | COc1cccc(COC(=O)c2sccc2OC2CCNCC2)c1 | 
5 |  | Cc1nn(C)c(C)c1Cc1nnc(-c2cc(Cl)ccc2OC2CCNCC2)o1 | > 90
